Experiments:
[1] = target: T1, mature p20 forms of caspase-7 (Homo sapiens, UniProt P55210); test: Inhibitor specificity in hypotonic 293 extracts, mature p20 caspase-7; format: biochemical; settings: inhibitor 20 μM for 5 min, then KMB01 30 min
T1 construct: p20 is mature large subunit of caspase-7 with N-terminal peptide removed; processing of the zymogen to the large and small subunits by activity of the initiator caspases; endogenous in cells
T1 sequence (P55210 24-198 limits assumed): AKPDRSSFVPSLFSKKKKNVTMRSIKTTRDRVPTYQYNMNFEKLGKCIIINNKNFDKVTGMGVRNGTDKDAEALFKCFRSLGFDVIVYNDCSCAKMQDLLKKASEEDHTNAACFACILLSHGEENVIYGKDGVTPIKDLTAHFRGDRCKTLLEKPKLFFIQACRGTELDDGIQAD
T1 sequence (P55210 207-303 limits assumed): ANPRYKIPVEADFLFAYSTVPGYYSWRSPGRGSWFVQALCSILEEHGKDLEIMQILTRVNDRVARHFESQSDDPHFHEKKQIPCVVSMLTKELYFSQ
From the text: FIGS. 6 A-E illustrate that full-length active caspase-7 has unique inhibitor specificity and is processed to mature forms by downstream executioner caspases. (A) The caspase-3 specific inhibitor causes accumulation of a catalytically active full-length form of caspase-7. Cytosolic extracts from 293 cells were activated with cytochrome c/dATP for the indicated times followed by labeling with KMB01 (left panel) and western blotting with a caspase-7 specific antibody (right panel) as in FIG. 5A. […] (B) The exact same experiment as (A) except extracts from MCF-7 cells were used in place of 293 extracts. (**) indicates forms of caspase-7 that are likely a result of the alternative transcription start site at methionine-45 (C) Quantification of the relative activity of FL-C7 in uninhibited 293 extracts (from FIG. 5A), AB06 treated 293 extracts (from (A)) and uninhibited MCF-7 extracts (from (B)) (D) Inhibitor specificity of full-length and processed forms of caspase-7. Extracts (293) were activated for 5 min with cytochrome c/dATP and then incubated with NP-capped AOMK inhibitors containing the indicated primary amino acid sequences for 5 minutes before KMB01 was added and allowed to label residual caspase active sites for 30 minutes. Samples were analyzed by SDS-PAGE followed by biotin blotting using strepavidin-HRP (left panel) or western blotting for caspase-7 (right panel). Identities of labeled caspases are indicated. (E) Specificity of AB06 after prolonged incubation times. Extracts were treated with AB06 at the indicated concentrations simultaneously with cytochrome c/dATP. At the indicated times after activation, samples were labeled with KMB01 (10 μM) for 30 minutes. Labeled caspases were resolved by SDS-PAGE analysis followed by biotin blotting using strepavidin-HRP.
An additional surprising finding from the inhibitor studies was the overall lack of inhibition of the FL-C7 species by AB06 relative to mature p20 forms of caspase-7. This was surprising since the sequence of AB06 (NP-D3VD-AOMK) differs from the KMB01 probe sequence (Bio-EVD-AOMK) only at the P3 residue. […] We therefore wanted to use inhibitors to compare the ability of different P3 elements to bind to full-length and p20 mature forms of caspase-7. […] Samples were analyzed for active site labeling and protein levels of both full-length and p20 forms of caspase-7 were monitored by western blot (FIG. 6D).
Hypotonic 293 extracts (73 μg of total protein) were activated at 37° C. for 5 minutes as described above. […] Samples (13.5 μg total protein) were analyzed by SDS-PAGE and biotin blotting as described above

Caspase-9 = target: T2, Caspase-9 (Homo sapiens, UniProt P55211); test: Kinetic compound screening, progress curve method, caspase-9; format: biochemical; settings: NI = no inhibition at concentrations tested; for Ki(app) Caspase-9: Table III, Ki(app) = Kass or Kobs/I, 50 nM active caspase-9; for Caspase-9 Ki (app): Table IV
T2 sequence (P55211 1-416): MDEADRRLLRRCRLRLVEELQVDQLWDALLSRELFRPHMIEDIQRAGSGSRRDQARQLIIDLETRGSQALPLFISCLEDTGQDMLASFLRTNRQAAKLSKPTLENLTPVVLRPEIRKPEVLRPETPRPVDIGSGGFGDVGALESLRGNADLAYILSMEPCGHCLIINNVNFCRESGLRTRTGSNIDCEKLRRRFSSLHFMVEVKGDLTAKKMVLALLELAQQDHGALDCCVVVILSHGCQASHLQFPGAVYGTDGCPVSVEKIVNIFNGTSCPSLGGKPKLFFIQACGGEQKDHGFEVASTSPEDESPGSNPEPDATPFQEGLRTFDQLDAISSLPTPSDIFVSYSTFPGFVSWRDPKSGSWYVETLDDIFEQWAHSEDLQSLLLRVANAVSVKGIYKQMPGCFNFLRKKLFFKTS
In short: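 Progress-curve method under pseudo-first-order kinetics, giving Ki(app) (kobs/I, M^−1s^−1), in caspase reaction buffer. Active enzyme at 5 nM (caspase-3, -7), 10 nM (caspase-8) or 50 nM (caspase-9), preactivated at 37 °C for 5, 10 or 40 min respectively. Some caspase-9 compounds also run with 1 M sodium citrate replacing sucrose.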

## Cc1cccc(C)c1C(=O)OCC(=O)[C@H](CC(=O)O)NC(=O)[C@@H](NC(=O)[C@H](Cc1ccncc1)NC(=O)[C@H](CC(=O)O)NC(=O)Cc1ccc(O)c([N+](=O)[O-])c1)C(C)C [AB06, Np-D-3-V-D-DMBA]
[1]
  block of KMB01 labeling of mature p20 caspase-7: efficiently blocked labeling

## Cc1cccc(C)c1C(=O)OCC(=O)[C@H](CC(=O)O)NC(=O)[C@@H](NC(=O)[C@H](CCC(=O)O)NC(=O)[C@H](CC(=O)O)NC(=O)Cc1ccc(O)c([N+](=O)[O-])c1)C(C)C [AB09, Np-D-E- V-D-DMBA]
Caspase-9
  Ki(app) Caspase-9: <5,000 M^−1s^−1
  Caspase-9 Ki (app): <5,000 M-1s-1
[1]
  block of KMB01 labeling of mature p20 caspase-7: efficiently blocked labeling

## Bio-EVD-AOMK [KMB01, reference compound]
Caspase-9
  Ki(app) Caspase-9: 175,210 M^−1s^−1
  Caspase-9 Ki (app): 210 M⁻¹ s⁻¹
